Earlier results, collected in patent US6468963B1, “Methods and formulations for reducing toxicity associated with diabetes treatments” (BioNumerik Pharmaceuticals, Inc., priority 2000, dated 2002).

What was measured:
mice = details: doses higher than 3750 mg/kg (accepted LD50 for common table salt)
humans = details: doses exceeding 40 g/m^2
dogs = details: doses higher than 3750 mg/kg (accepted LD50 for common table salt)
[1] = accepted value; species not stated

Structure (SMILES)	adverse effects (mice)	adverse effects (humans)	adverse effects (dogs)	LD50 [1] [mg/kg]
O=S(=O)([O-])CCSSCCS(=O)(=O)[O-].[Na+].[Na+] [Dimesna, disodium 2,2′-dithiobis ethane sulfonate]	no adverse effects	no adverse effects	no adverse effects	
[Cl-].[Na+] [common table salt]				3750
